Measurements from ChEMBL document CHEMBL1201862, “PubChem BioAssay data set” (2004).
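Dose response: 5 concentrations. Exposure: 48 h. Format: 96-well plates. Endpoint: linear interpolation; highest concentration if not reached. The concentration for 50% growth inhibition is given as GI50.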 Active and inactive are the calls of the source. Cut-off read from the data, not from the text of the source: active = GI50 up to about 1.1 µM and inactive = higher.

Experiments:
Assay in all cases: NCI anticancer screen, dose series, 48 h
[1] = tested on: OVCAR-3
[2] = tested on: M14
[3] = tested on: U-251
[4] = tested on: SN12C
[5] = tested on: HL-60
[6] = tested on: SF-268
[7] = tested on: K562
[8] = tested on: TK-10
[9] = tested on: NCI/ADR-RES
[10] = tested on: HCT-116
[11] = tested on: NCI-H23
[12] = tested on: SR
[13] = tested on: SK-MEL-28
[14] = tested on: OVCAR-8
[15] = tested on: UACC-62
[16] = tested on: MDA-N
[17] = tested on: SK-OV-3
[18] = tested on: CCRF-CEM
[19] = tested on: RXF 393
[20] = tested on: Malme-3M

| Compound | GI50 [1] | GI50 [2] | GI50 [3] | GI50 [4] | GI50 [5] | GI50 [6] | GI50 [7] | GI50 [8] | GI50 [9] | GI50 [10] | GI50 [11] | GI50 [12] | GI50 [13] | GI50 [14] | GI50 [15] | GI50 [16] | GI50 [17] | GI50 [18] | GI50 [19] | GI50 [20] |
| --- | --- | --- | --- | --- | --- | --- | --- | --- | --- | --- | --- | --- | --- | --- | --- | --- | --- | --- | --- | --- |
| CC(C)C[C@@H](NC(=O)[C@@H](Cc1cccc2ccccc12)NC(=O)N1CCOCC1)B(O)O | 29.4 µM (inactive) | 28.2 µM (inactive) | > 100 µM (inactive) | 96.2 µM (inactive) | 38.7 µM (inactive) | 61.5 µM (inactive) | 57.9 µM (inactive) | 31.9 µM (inactive) | > 100 µM (inactive) | 33.2 µM (inactive) | 51.2 µM (inactive) | 27 µM (inactive) | 25.2 µM (inactive) | > 100 µM (inactive) | 63.1 µM (inactive) | 20.7 µM (inactive) | – | – | – | – |
| Nc1ccn([C@H]2CO[C@@H](CO)[C@@H]2O)c(=O)n1 | > 100 µM (inactive) | – | > 100 µM (inactive) | > 100 µM (inactive) | – | > 100 µM (inactive) | > 100 µM (inactive) | > 100 µM (inactive) | > 100 µM (inactive) | > 100 µM (inactive) | > 100 µM (inactive) | > 100 µM (inactive) | > 100 µM (inactive) | – | > 100 µM (inactive) | > 100 µM (inactive) | > 100 µM (inactive) | > 100 µM (inactive) | > 100 µM (inactive) | – |
| Clc1ccc(/C=C/c2nc3ccccc3s2)cc1Cl | 50.6 µM (inactive) | 36.5 µM (inactive) | 25.7 µM (inactive) | > 100 µM (inactive) | 82 µM (inactive) | 42.8 µM (inactive) | > 100 µM (inactive) | 34.4 µM (inactive) | 63.2 µM (inactive) | 19.5 µM (inactive) | 94 µM (inactive) | > 100 µM (inactive) | > 100 µM (inactive) | 47.8 µM (inactive) | 59.2 µM (inactive) | 70.5 µM (inactive) | 50.1 µM (inactive) | > 100 µM (inactive) | – | 48.2 µM (inactive) |
| CC1=C(C)SC(=C2Sc3c(n(C)c(=O)[nH]c3=O)S2)S1 | > 100 µM (inactive) | > 100 µM (inactive) | > 100 µM (inactive) | > 100 µM (inactive) | > 100 µM (inactive) | > 100 µM (inactive) | > 100 µM (inactive) | > 100 µM (inactive) | > 100 µM (inactive) | > 100 µM (inactive) | > 100 µM (inactive) | – | > 100 µM (inactive) | > 100 µM (inactive) | > 100 µM (inactive) | > 100 µM (inactive) | > 100 µM (inactive) | > 100 µM (inactive) | > 100 µM (inactive) | > 100 µM (inactive) |
| c1ccc(/C(=N/Nc2nc3ccccc3s2)C2CCCCC2)nc1 | 2.92 µM (inactive) | 10.3 µM (inactive) | 11.3 µM (inactive) | 9.44 µM (inactive) | – | 10.6 µM (inactive) | 7.05 µM (inactive) | 2.47 µM (inactive) | 2.58 µM (inactive) | 0.296 µM (active) | 6.4 µM (inactive) | 3.88 µM (inactive) | 10.4 µM (inactive) | 4.16 µM (inactive) | 12.8 µM (inactive) | 14.4 µM (inactive) | 4.67 µM (inactive) | 1.98 µM (inactive) | 11.7 µM (inactive) | 4.13 µM (inactive) |
| O=c1[nH]c(=O)n(C2COC(CO)C2O)cc1F (stereo not given) | 15.5 µM (inactive) | 50.6 µM (inactive) | 72.9 µM (inactive) | 28.3 µM (inactive) | – | 64.3 µM (inactive) | 56.5 µM (inactive) | 68.1 µM (inactive) | 72.1 µM (inactive) | 9.98 µM (inactive) | 15.1 µM (inactive) | 95.3 µM (inactive) | 26.7 µM (inactive) | 57 µM (inactive) | 22.1 µM (inactive) | 25.2 µM (inactive) | 74.6 µM (inactive) | 74.8 µM (inactive) | 2.94 µM (inactive) | 9.29 µM (inactive) |
| C/C=C/C=C/c1nc(C#N)c(N)o1 | > 100 µM (inactive) | > 100 µM (inactive) | > 100 µM (inactive) | > 100 µM (inactive) | – | > 100 µM (inactive) | > 100 µM (inactive) | > 100 µM (inactive) | > 100 µM (inactive) | > 100 µM (inactive) | > 100 µM (inactive) | > 100 µM (inactive) | > 100 µM (inactive) | > 100 µM (inactive) | > 100 µM (inactive) | > 100 µM (inactive) | > 100 µM (inactive) | 7.08 µM (inactive) | > 100 µM (inactive) | > 100 µM (inactive) |
| O=[N+]([O-])/C(C(Cl)=C(Cl)Cl)=C(\N1CCCCC1)n1nnc2ccccc21 | 17.9 µM (inactive) | 17.3 µM (inactive) | 16.9 µM (inactive) | 18.3 µM (inactive) | – | 20.8 µM (inactive) | 8.41 µM (inactive) | 18.2 µM (inactive) | 29.6 µM (inactive) | 18.9 µM (inactive) | 19.1 µM (inactive) | 16.4 µM (inactive) | 22.3 µM (inactive) | 19.9 µM (inactive) | 18.6 µM (inactive) | 20.8 µM (inactive) | 24.9 µM (inactive) | – | 16.3 µM (inactive) | 21.6 µM (inactive) |
| CSc1ccc(/C=C/C(=O)c2nc3ccccc3[nH]2)cc1 | 16.6 µM (inactive) | 15.9 µM (inactive) | – | 29.2 µM (inactive) | 12.1 µM (inactive) | 26.9 µM (inactive) | 4.41 µM (inactive) | 3.58 µM (inactive) | 20.1 µM (inactive) | 12.7 µM (inactive) | 23.6 µM (inactive) | 2.35 µM (inactive) | 31.6 µM (inactive) | 37.2 µM (inactive) | 14.2 µM (inactive) | 7.36 µM (inactive) | 27.5 µM (inactive) | 3.49 µM (inactive) | – | 44.7 µM (inactive) |
| CCOC(=O)c1nnsc1NC(=O)NCCCCCCn1c(=O)n(CCCCCCNC(=O)Nc2snnc2C(=O)OCC)c(=O)n(CCCCCCNC(=O)Nc2snnc2C(=O)OCC)c1=O | 57.8 µM (inactive) | > 100 µM (inactive) | 19.3 µM (inactive) | 33.3 µM (inactive) | – | 19.8 µM (inactive) | 66.4 µM (inactive) | – | > 100 µM (inactive) | 38.8 µM (inactive) | 24.9 µM (inactive) | > 100 µM (inactive) | – | 35.8 µM (inactive) | 17.3 µM (inactive) | 36.8 µM (inactive) | 40.2 µM (inactive) | 38.5 µM (inactive) | 13.5 µM (inactive) | 25.1 µM (inactive) |
| CCC/N=C1\S/C(=C/c2ccc(OC)c(OC)c2)C(=O)N1c1ccccc1 | 12.6 µM (inactive) | > 100 µM (inactive) | 12.6 µM (inactive) | 54.8 µM (inactive) | 59.8 µM (inactive) | 15.1 µM (inactive) | > 100 µM (inactive) | 22.8 µM (inactive) | 93.1 µM (inactive) | 24 µM (inactive) | 76.7 µM (inactive) | 51.8 µM (inactive) | > 100 µM (inactive) | 82.2 µM (inactive) | 37 µM (inactive) | > 100 µM (inactive) | 11.2 µM (inactive) | 58.7 µM (inactive) | – | > 100 µM (inactive) |
| [O-][S+](C(c1ccccc1)=P(c1ccccc1)(c1ccccc1)c1ccccc1)c1ccc(Cl)cc1 (stereo not given) | 22.3 µM (inactive) | 25.5 µM (inactive) | 21.2 µM (inactive) | – | 11.5 µM (inactive) | 20.4 µM (inactive) | 14.2 µM (inactive) | 31.9 µM (inactive) | 66.7 µM (inactive) | 20.7 µM (inactive) | 26.7 µM (inactive) | 19.5 µM (inactive) | 22 µM (inactive) | 28.1 µM (inactive) | – | 13.3 µM (inactive) | 24.4 µM (inactive) | 20.9 µM (inactive) | 21.3 µM (inactive) | – |
| Nn1c(Cc2ccc([N+](=O)[O-])cc2)n[nH]c1=O | > 100 µM (inactive) | > 100 µM (inactive) | > 100 µM (inactive) | > 100 µM (inactive) | > 100 µM (inactive) | > 100 µM (inactive) | > 100 µM (inactive) | – | > 100 µM (inactive) | > 100 µM (inactive) | > 100 µM (inactive) | > 100 µM (inactive) | > 100 µM (inactive) | > 100 µM (inactive) | > 100 µM (inactive) | > 100 µM (inactive) | > 100 µM (inactive) | > 100 µM (inactive) | – | > 100 µM (inactive) |
| CCCCCCNC(=O)c1cc(C#Cc2cc(OC)ccc2OC)ccc1OC | – | 17.5 µM (inactive) | > 100 µM (inactive) | – | – | > 100 µM (inactive) | 3.92 µM (inactive) | > 100 µM (inactive) | 47.8 µM (inactive) | – | 47.4 µM (inactive) | 3.18 µM (inactive) | 3.04 µM (inactive) | > 100 µM (inactive) | – | 3.22 µM (inactive) | > 100 µM (inactive) | – | – | – |
| CC(C)(C)c1cc(O)ccc1O [E319] | 43.6 µM (inactive) | > 100 µM (inactive) | 0.675 µM (active) | > 100 µM (inactive) | 9.73 µM (inactive) | > 18.7 µM (inactive) | > 68.5 µM (inactive) | 8.32 µM (inactive) | > 79.6 µM (inactive) | > 57.9 µM (inactive) | > 100 µM (inactive) | 1.1 µM (active) | > 100 µM (inactive) | > 63.7 µM (inactive) | > 100 µM (inactive) | > 100 µM (inactive) | > 100 µM (inactive) | 4.92 µM (inactive) | – | > 19.3 µM (inactive) |
